In paper PMC8196580, “Identification of Kaurane-Type Diterpenes as Inhibitors of Leishmania Pteridine Reductase I” (Molecules, 2021):
Read-outs that look alike come from different tables or passages of the source.

Key:
[1] = tested on: L. major; assay: ChEMBL dataset of pIC50 values against L. major used for the RF model (Table S1); format: cell-based, Leishmania major; note: call rule not given here
[2] = tested on: L. major; parameters: method as in ChEMBL; details: ref ChEMBL, cited from earlier work
[3] = Active/Inactive class assigned to the ChEMBL pIC50 value for Random forest model construction, ref ChEMBL
[4] = ChemBL structures with pIC50 values used for Random forest model construction, L. major
[5] = Active/Inactive class assigned to ChemBL structures for Random forest model construction (Table S1)
[6] = ChemBL structures with pIC50 values used for Random forest model construction (Table S1)

| Structure (SMILES) | Outcome [1, 3] | pIC50 Value [2, 4] | Outcome [1, 5] | pIC50 Value [2, 6] |
| --- | --- | --- | --- | --- |
| CC1=C(C(=O)OC(C)C)C(c2cccc([N+](=O)[O-])c2)C(C(=O)OC2CN(C(c3ccccc3)c3ccccc3)C2)=C(N)N1 (centres unmarked) [CHEMBL1275868] | Inactive | 4.77 | – | – |
| CCOC(=O)c1ccc(-c2c(-c3ccccc3)nc3cnccn23)cc1 [CHEMBL3634353] | Inactive | 4.76 | – | – |
| O=[N+]([O-])c1ccc2nc(-c3cccs3)[nH]c2c1 [CHEMBL2297907] | – | – | Active | 5.48 |
| COc1cc(CO)c(-c2ccc3c(c2O)[C@@H](C)N[C@H](C)C3)c2cccc(O)c12 [CHEMBL222805] | Inactive | 4.00 | – | – |
| Cc1cccc2oc(=O)c3c(c12)O[C@H](C)[C@@]3(C)CC(=O)[C@@H]1OC1(C)C [CHEMBL517042] | Inactive | 4.87 | – | – |
| COc1ccccc1Nc1ncnc2ccc([N+](=O)[O-])cc12 [CHEMBL3758369] | – | – | Active | 5.36 |
| CO[C@H]1C[C@@H](C)[C@H]2[C@H](C[C@@]3(C)[C@@H]4C[C@H](O)[C@H]5C(C)(C)[C@@H](O[C@@H]6OC[C@@H](O)[C@@H](O)[C@H]6O)CC[C@@]56C[C@@]46CC[C@]23C)O1 [CHEMBL450438] | Inactive | 4.03 | – | – |
| COc1cc(OC)c2c(C)[n+](-c3ccc4cc5ccccc5cc4c3)c(C)cc2c1.F[B-](F)(F)F [CHEMBL482393] | – | – | Active | 6.17 |
| O=[N+]([O-])c1ccc(-c2c(-c3ccccc3)nc3cnccn23)cc1 [CHEMBL3634352] | Inactive | 4.56 | – | – |
| CC[C@H](CO)Nc1nc(NCc2cc(C)ccc2O)c2ncn(C(C)C)c2n1 [CHEMBL3423080] | – | – | Active | 5.64 |
| C/C(C=O)=C\CCC(C)(O)/C=C\c1cc(O)ccc1O (centres unmarked) [CHEMBL255316] | Inactive | 4.04 | – | – |
| O=C(c1ccccc1Cl)N1CCN(c2nnc(-c3ccc([N+](=O)[O-])s3)s2)CC1 [CHEMBL458772] | Inactive | 4.46 | – | – |
| CCC/C=C/C=C/c1nc2cc(OC)ccc2n2cccc12 [CHEMBL3260211] | – | – | Active | 5.55 |
| COc1cc2c(c(OC)c1)C(C)=[N+](c1ccc3cc(C)cc(OC)c3c1O)[C@@H](C)C2.O=C([O-])C(F)(F)F [CHEMBL426747] | – | – | Active | 5.91 |
| COc1c(C)cc(O)c2c(OC)cccc12 [CHEMBL2071224] | Inactive | 4.00 | – | – |
| Cc1ccc2cc(C3CC(c4ccc(C)s4)=NN3)c(Cl)nc2c1 (centres unmarked) [CHEMBL2236138] | – | – | Active | 5.58 |

| Structure (SMILES) | Outcome [1, 3] | pIC50 Value [2, 4] | Outcome [1, 5] | pIC50 Value [2, 6] |
| --- | --- | --- | --- | --- |
| COc1ccccc1-c1nnc(-c2ccc(C(=O)N/N=C/c3ccccc3O)cc2)o1 [CHEMBL4074817] | – | – | Active | 5.38 |
| CC(C)N1CN(CC(=O)O)CSC1=S [CHEMBL4277354] | Inactive | 3.86 | – | – |
| O=[N+]([O-])c1ccc(-c2nnc(N3CCOCC3)s2)s1 [CHEMBL195645] | Inactive | 4.97 | – | – |
| C[C@]12CC[C@H](O)C[C@@H]1CC[C@@H]1[C@@H]2CC[C@@]2(C)[C@H]1CC[C@@H]2[C@@](C)(O)c1ccccn1 [CHEMBL1214311] | Inactive | 4.00 | – | – |
| CCCCCCNc1ccc(Nc2c3ccc(Cl)cc3nc3ccc(OC)cc23)cc1OC [CHEMBL89400] | – | – | Active | 6.30 |
| Cc1ccc(Cl)cc1Nc1ncnc2ccc([N+](=O)[O-])cc12 [CHEMBL3758550] | Inactive | 4.35 | – | – |
| COc1ccccc1C(=O)N/N=C/c1ccc([N+](=O)[O-])cc1 [CHEMBL2382044] | Inactive | 4.50 | – | – |
| c1ccc2c(Nc3ccc(NC4CCCCC4)cc3)c3ccccc3nc2c1 [CHEMBL89171] | – | – | Active | 6.26 |
| Nc1ccc(Nc2c3ccccc3nc3ccccc23)cc1 [CHEMBL289352] | – | – | Active | 5.68 |
| CC(=O)CCCCCCCCCC[C@H]1CC[C@@H](O)[C@@H](C)N1 [CHEMBL2262843] | Active | 5.27 | – | – |
| c1ccc(-c2nc3ccccn3c2-c2ccccc2)cc1 [CHEMBL1719415] | Inactive | 4.65 | – | – |
| COc1ccc(-c2nc3ccccc3[nH]2)cc1 [CHEMBL379179] | – | – | Active | 5.44 |
| COc1cc2c(c(OC)c1)C(C)N(c1ccc(OC)c3c(OC)cc(C)cc13)[C@H](C)C2 (some centres unmarked) [CHEMBL479850] | Inactive | 4.18 | – | – |
| COc1ccccc1C(=O)N/N=C/c1cccs1 [CHEMBL2382043] | – | – | Active | 5.60 |
| COc1cc(C)c(-c2ccc3cc(C)nc(C)c3c2O)c2cccc(O)c12 [CHEMBL222221] | Inactive | 4.49 | – | – |
